Results as given in patent EP0908457B1, “3-(1,2-benzisothiazol- and isoxazol-5-Y1)-2,4(1H,3H)-pyrimidinedione or thione and 3-(1,2-benzisothiazol- and isoxazol-5-y1)-4(3H)-pyrimidinone or thione herbicidal agents” (BASF AKTIENGESELLSCHAFT, priority 1997, dated 1999).

Assays:
[1] = tested on: Echinochloa oryzoides (Ard.) Fritsch.; test: Preemergence weed control under flooded paddy conditions, ECHORC (Watergrass (Calif.)); format: in vivo; conditions: flooded paddy; for ECHORC herbicidal effect rating / herbicidal effect rating, ECHORC: preemergence, rated three to four weeks after treatment; for ECHORC: preemergence weeds, herbicidal effect rating 0-9, three to four weeks after treatment; for herbicidal effect rating, ECHORC: meaning of each grade not given here
Cyperus iria = test: Preemergence weed control under flooded paddy conditions, CYPIR (Rice Flatsedge); format: in vivo; conditions: flooded paddy; for CYPIR herbicidal effect rating / herbicidal effect rating, CYPIR: preemergence, rated three to four weeks after treatment; for CYPIR: preemergence weeds, herbicidal effect rating 0-9, three to four weeks after treatment; for herbicidal effect rating, CYPIR: meaning of each grade not given here
[2] = tested on: Monochoria vaginalis, Presl.; test: Preemergence weed control under flooded paddy conditions, MOOVA (Monochoria); format: in vivo; conditions: flooded paddy; for MOOVA herbicidal effect rating / herbicidal effect rating, MOOVA: preemergence, rated three to four weeks after treatment; for MOOVA: preemergence weeds, herbicidal effect rating 0-9, three to four weeks after treatment; for herbicidal effect rating, MOOVA: meaning of each grade not given here
Sagittaria pygmaea, L. = test: Preemergence weed control under flooded paddy conditions, SAGPY (Arrowhead (Pygmaea)); format: in vivo; conditions: flooded paddy; for SAGPY herbicidal effect rating / herbicidal effect rating, SAGPY: preemergence, rated three to four weeks after treatment; for SAGPY: preemergence weeds, herbicidal effect rating 0-9, three to four weeks after treatment; for herbicidal effect rating, SAGPY: meaning of each grade not given here
[3] = tested on: Cyperus serotinus, Rottb.; test: Preemergence weed control under flooded paddy conditions, CYPSE (Flatsedge); format: in vivo; conditions: for CYPSE herbicidal effect rating / herbicidal effect rating, CYPSE: preemergence, rated three to four weeks after treatment; for CYPSE: preemergence weeds, herbicidal effect rating 0-9, three to four weeks after treatment; for herbicidal effect rating, CYPSE: meaning of each grade not given here
[4] = tested on: Oryza sativa, (L.) Tebonnet; test: Rice tolerance to post-transplant applications under flooded paddy conditions (Example 187), ORYSAT (Rice, Tebonnet); conditions: for ORYSAT herbicidal effect rating / herbicidal effect rating ORYSAT: rated three to four weeks after treatment; for ORYSAT: herbicidal effect rating 0-9, three to four weeks after treatment

SMILES: Cn1c(C(F)(F)F)cc(=O)n(-c2ccc3snc(-c4ccc(OCC(=O)OC(C)(C)C)cc4)c3c2)c1=O [Example 273, Acetic acid, {p-{5-[3,6-dihydro-3-methyl-2,6-dioxo-4-(trifluoromethyl)-1(2H)-pyrimidinyl]-1,2-benzisothiazol-3-yl}phenoxy}-, tert-butyl ester]
- ECHORC herbicidal effect rating ([1]; Rate 0.0320 kg/ha): 3.9
- ECHORC herbicidal effect rating ([1]; Rate 0.0620 kg/ha): 5.1
- ECHORC herbicidal effect rating ([1]; Rate 0.1250 kg/ha): 6.0
- ECHORC herbicidal effect rating ([1]; Rate 0.2500 kg/ha): 9.0
- ECHORC herbicidal effect rating ([1]; Rate 0.5000 kg/ha): 9.0
- CYPIR herbicidal effect rating (Cyperus iria; Rate 0.0320 kg/ha): 6.0
- CYPIR herbicidal effect rating (Cyperus iria; Rate 0.0620 kg/ha): 9.0
- CYPIR herbicidal effect rating (Cyperus iria; Rate 0.1250 kg/ha): 9.0
- CYPIR herbicidal effect rating (Cyperus iria; Rate 0.2500 kg/ha): 9.0
- CYPIR herbicidal effect rating (Cyperus iria; Rate 0.5000 kg/ha): 4.0
- MOOVA herbicidal effect rating ([2]; Rate 0.0320 kg/ha): 9.0
- MOOVA herbicidal effect rating ([2]; Rate 0.0620 kg/ha): 9.0
- MOOVA herbicidal effect rating ([2]; Rate 0.1250 kg/ha): 9.0
- MOOVA herbicidal effect rating ([2]; Rate 0.2500 kg/ha): 9.0
- MOOVA herbicidal effect rating ([2]; Rate 0.5000 kg/ha): 9.0
- SAGPY herbicidal effect rating (Sagittaria pygmaea, L.; Rate 0.0320 kg/ha): 0.0
- SAGPY herbicidal effect rating (Sagittaria pygmaea, L.; Rate 0.0620 kg/ha): 0.0
- SAGPY herbicidal effect rating (Sagittaria pygmaea, L.; Rate 0.1250 kg/ha): 0.0
- SAGPY herbicidal effect rating (Sagittaria pygmaea, L.; Rate 0.2500 kg/ha): 6.0
- SAGPY herbicidal effect rating (Sagittaria pygmaea, L.; Rate 0.5000 kg/ha): 0.0
- CYPSE herbicidal effect rating ([3]; Rate 0.0320 kg/ha): 0.0
- CYPSE herbicidal effect rating ([3]; Rate 0.0620 kg/ha): 0.0
- CYPSE herbicidal effect rating ([3]; Rate 0.2500 kg/ha): 7.0
- CYPSE herbicidal effect rating ([3]; Rate 0.5000 kg/ha): 9.0
- ORYSAT herbicidal effect rating ([4]; Rate 0.0320 kg/ha): 0.0
- ORYSAT herbicidal effect rating ([4]; Rate 0.0620 kg/ha): 2.0
- ORYSAT herbicidal effect rating ([4]; Rate 0.1250 kg/ha): 3.0
- ORYSAT herbicidal effect rating ([4]; Rate 0.2500 kg/ha): 4.0
- ORYSAT herbicidal effect rating ([4]; Rate 0.5000 kg/ha): 3.0

SMILES: C=CS(=O)(=O)NC(=O)C(C)Oc1ccc(C)cc1-c1nsc2ccc(-n3c(=O)cc(C(F)(F)F)n(C)c3=O)cc12 (centres unmarked) [Example 570, Propionamide, 2-{{2-{5-[3,6-dihydro-3-methyl-2,6-dioxo-4-(trifluoromethyl)-1(2H)-pyrimidinyl]-1,2-benzisothiazol-3-yl}-p-tolyl}oxy}-N-(vinylsulfonyl)-]
- herbicidal effect rating, ECHORC ([1]; Rate 0.0320 kg/ha): 0.0
- herbicidal effect rating, ECHORC ([1]; Rate 0.0620 kg/ha): 2.0
- herbicidal effect rating, ECHORC ([1]; Rate 0.1250 kg/ha): 4.0
- herbicidal effect rating, ECHORC ([1]; Rate 0.2500 kg/ha): 6.0
- herbicidal effect rating, CYPIR (Cyperus iria; Rate 0.0320 kg/ha): 0.0
- herbicidal effect rating, CYPIR (Cyperus iria; Rate 0.0620 kg/ha): 0.0
- herbicidal effect rating, CYPIR (Cyperus iria; Rate 0.1250 kg/ha): 0.0
- herbicidal effect rating, CYPIR (Cyperus iria; Rate 0.2500 kg/ha): 9.0
- herbicidal effect rating, MOOVA ([2]; Rate 0.0320 kg/ha): 0.0
- herbicidal effect rating, MOOVA ([2]; Rate 0.0620 kg/ha): 0.0
- herbicidal effect rating, MOOVA ([2]; Rate 0.1250 kg/ha): 0.0
- herbicidal effect rating, MOOVA ([2]; Rate 0.2500 kg/ha): 9.0
- herbicidal effect rating, SAGPY (Sagittaria pygmaea, L.; Rate 0.0320 kg/ha): 0.0
- herbicidal effect rating, SAGPY (Sagittaria pygmaea, L.; Rate 0.0620 kg/ha): 0.0
- herbicidal effect rating, SAGPY (Sagittaria pygmaea, L.; Rate 0.1250 kg/ha): 0.0
- herbicidal effect rating, SAGPY (Sagittaria pygmaea, L.; Rate 0.2500 kg/ha): 0.0
- herbicidal effect rating, CYPSE ([3]; Rate 0.0320 kg/ha): 0.0
- herbicidal effect rating, CYPSE ([3]; Rate 0.0620 kg/ha): 0.0
- herbicidal effect rating, CYPSE ([3]; Rate 0.1250 kg/ha): 0.0
- herbicidal effect rating, CYPSE ([3]; Rate 0.2500 kg/ha): 0.0
- herbicidal effect rating ORYSAT ([4]; Rate 0.0320 kg/ha): 0.0
- herbicidal effect rating ORYSAT ([4]; Rate 0.0620 kg/ha): 1.0
- herbicidal effect rating ORYSAT ([4]; Rate 0.1250 kg/ha): 2.0
- herbicidal effect rating ORYSAT ([4]; Rate 0.2500 kg/ha): 3.0

SMILES: CN(C)/N=C/c1nsc2ccc(-n3c(=O)cc(C(F)(F)F)n(C)c3=O)cc12 [Example 409, 1,2-Benzisothiazole-3-carboxaldehyde, 5-[3,6-dihydro-3-methyl-2,6-dioxo-4-(trifluoromethyl)-1(2H)-pyrimidinyl]-, 3-(dimethylhydrazone), (E)-]
- ECHORC ([1]; 0.0320 kg/ha): 3.0
- ECHORC ([1]; 0.0620 kg/ha): 4.0
- ECHORC ([1]; 0.1250 kg/ha): 9.0
- ECHORC ([1]; 0.2500 kg/ha): 9.0
- CYPIR (Cyperus iria; 0.0320 kg/ha): 7.0
- CYPIR (Cyperus iria; 0.0620 kg/ha): 9.0
- CYPIR (Cyperus iria; 0.1250 kg/ha): 9.0
- CYPIR (Cyperus iria; 0.2500 kg/ha): 9.0
- MOOVA ([2]; 0.0320 kg/ha): 9.0
- MOOVA ([2]; 0.0620 kg/ha): 9.0
- MOOVA ([2]; 0.1250 kg/ha): 9.0
- MOOVA ([2]; 0.2500 kg/ha): 9.0
- SAGPY (Sagittaria pygmaea, L.; 0.0320 kg/ha): 2.0
- SAGPY (Sagittaria pygmaea, L.; 0.0620 kg/ha): 4.0
- SAGPY (Sagittaria pygmaea, L.; 0.1250 kg/ha): 7.0
- SAGPY (Sagittaria pygmaea, L.; 0.2500 kg/ha): 9.0
- CYPSE ([3]; 0.0320 kg/ha): 2.0
- CYPSE ([3]; 0.0620 kg/ha): 5.0
- CYPSE ([3]; 0.1250 kg/ha): 9.0
- CYPSE ([3]; 0.2500 kg/ha): 9.0
- ORYSAT ([4]; 0.0320 kg/ha): 3.0
- ORYSAT ([4]; 0.0620 kg/ha): 5.0
- ORYSAT ([4]; 0.1250 kg/ha): 7.0
- ORYSAT ([4]; 0.2500 kg/ha): 9.0
